Results as given in ChEMBL document CHEMBL1201862, “PubChem BioAssay data set” (2004).
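Following 48 hours of exposure in 96-well plates, responses at five concentrations were used to interpolate endpoints linearly. At the GI50, growth is halved.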 Activity calls are given as the source filed them. Rule as the data show it: active = GI50 up to about 1.1 µM and inactive = higher.

How the values were obtained:
Test in all cases: NCI-60 cell line screen, 48 h
786-0 = test system: 786-0
A498 = test system: A498
A549 = test system: A549
ACHN = test system: ACHN
CAKI-1 = test system: CAKI-1
CCRF-CEM = test system: CCRF-CEM
COLO 205 = test system: COLO 205
DMS-114 = test system: DMS-114
DMS-273 = test system: DMS-273
EKVX = test system: EKVX
HCT-116 = test system: HCT-116
HCT-15 = test system: HCT-15
HL-60 = test system: HL-60
HT-29 = test system: HT-29
IGROV-1 = test system: IGROV-1
K562 = test system: K562
KM-20L2 = test system: KM-20L2
KM12 = test system: KM12
LOX IMVI = test system: LOX IMVI
LXFL 529 = test system: LXFL 529
M14 = test system: M14
M19-MEL = test system: M19-MEL
MOLT-4 = test system: MOLT-4
Malme-3M = test system: Malme-3M
NCI-H460 = test system: NCI-H460
NCI-H522 = test system: NCI-H522
OVCAR-3 = test system: OVCAR-3
OVCAR-5 = test system: OVCAR-5
OVCAR-8 = test system: OVCAR-8
RPMI-8226 = test system: RPMI-8226
RXF 393 = test system: RXF 393
SF-268 = test system: SF-268
SF-295 = test system: SF-295
SF-539 = test system: SF-539
SK-MEL-2 = test system: SK-MEL-2
SK-MEL-5 = test system: SK-MEL-5
SK-OV-3 = test system: SK-OV-3
SN12C = test system: SN12C
SNB-19 = test system: SNB-19
SNB-75 = test system: SNB-75
SNB-78 = test system: SNB-78
SW-620 = test system: SW-620
TK-10 = test system: TK-10
U-251 = test system: U-251
UACC-257 = test system: UACC-257
UACC-62 = test system: UACC-62
UO-31 = test system: UO-31
XF498 = test system: XF498
Hs-578T = test system: Hs-578T
MCF7 = test system: MCF7
NCI-H23 = test system: NCI-H23
SK-MEL-28 = test system: SK-MEL-28
HCC 2998 = test system: HCC 2998
HOP-92 = test system: HOP-92
NCI-H226 = test system: NCI-H226
OVCAR-4 = test system: OVCAR-4
SR = test system: SR

CCOC(=O)CSc1cc[nH]c(=O)n1
GI50 (786-0): > 100 µM (inactive)
GI50 (A498): > 100 µM (inactive)
GI50 (A549): > 100 µM (inactive)
GI50 (ACHN): > 100 µM (inactive)
GI50 (CAKI-1): > 100 µM (inactive)
GI50 (CCRF-CEM): > 100 µM (inactive)
GI50 (COLO 205): > 100 µM (inactive)
GI50 (DMS-114): > 100 µM (inactive)
GI50 (DMS-273): > 100 µM (inactive)
GI50 (EKVX): > 100 µM (inactive)
GI50 (HCT-116): > 100 µM (inactive)
GI50 (HCT-15): > 100 µM
GI50 (HL-60): > 100 µM (inactive)
GI50 (HT-29): > 100 µM (inactive)
GI50 (IGROV-1): > 100 µM (inactive)
GI50 (K562): > 100 µM (inactive)
GI50 (KM-20L2): > 100 µM (inactive)
GI50 (KM12): > 100 µM (inactive)
GI50 (LOX IMVI): > 100 µM (inactive)
GI50 (LXFL 529): > 100 µM (inactive)
GI50 (M14): > 100 µM (inactive)
GI50 (M19-MEL): > 100 µM (inactive)
GI50 (MOLT-4): > 100 µM (inactive)
GI50 (Malme-3M): > 100 µM (inactive)
GI50 (NCI-H460): > 100 µM (inactive)
GI50 (NCI-H522): > 100 µM (inactive)
GI50 (OVCAR-3): > 100 µM (inactive)
GI50 (OVCAR-5): > 100 µM (inactive)
GI50 (OVCAR-8): > 100 µM (inactive)
GI50 (RPMI-8226): > 100 µM (inactive)
GI50 (RXF 393): 31.6 µM (inactive)
GI50 (SF-268): > 100 µM (inactive)
GI50 (SF-295): > 100 µM (inactive)
GI50 (SF-539): > 100 µM (inactive)
GI50 (SK-MEL-2): > 100 µM (inactive)
GI50 (SK-MEL-5): > 100 µM (inactive)
GI50 (SK-OV-3): > 100 µM (inactive)
GI50 (SN12C): > 100 µM (inactive)
GI50 (SNB-19): > 100 µM (inactive)
GI50 (SNB-75): > 100 µM (inactive)
GI50 (SNB-78): > 100 µM (inactive)
GI50 (SW-620): > 100 µM (inactive)
GI50 (TK-10): > 100 µM (inactive)
GI50 (U-251): > 100 µM (inactive)
GI50 (UACC-257): > 100 µM (inactive)
GI50 (UACC-62): > 100 µM (inactive)
GI50 (UO-31): > 100 µM (inactive)
GI50 (XF498): 75 µM (inactive)

CC1OC(O[C@@H]2C=C3CC[C@@H]4[C@H](CC[C@]5(C)[C@@H](c6ccc(=O)oc6)CC[C@]45O)[C@@]3(C)CC2)C(O)C(O)C1O (some centres not stated)
GI50 (A498): 0.03 µM (active)
GI50 (ACHN): 0.00179 µM (active)
GI50 (CCRF-CEM): 0.03 µM (active)
GI50 (COLO 205): 0.03 µM (active)
GI50 (HCT-15): 0.0475 µM
GI50 (HT-29): 0.03 µM (active)
GI50 (Hs-578T): 0.00119 µM (active)
GI50 (IGROV-1): 0.03 µM (active)
GI50 (K562): 0.03 µM (active)
GI50 (KM-20L2): 0.03 µM (active)
GI50 (KM12): 0.03 µM (active)
GI50 (LOX IMVI): 0.03 µM (active)
GI50 (M19-MEL): 0.03 µM (active)
GI50 (MCF7): 0.03 µM (active)
GI50 (NCI-H23): 0.0475 µM (active)
GI50 (OVCAR-5): 0.03 µM (active)
GI50 (OVCAR-8): 0.03 µM (active)
GI50 (RPMI-8226): 0.03 µM (active)
GI50 (SK-MEL-28): 0.03 µM (active)
GI50 (SNB-19): 0.03 µM (active)
GI50 (SW-620): 0.03 µM (active)
GI50 (U-251): 0.03 µM (active)
GI50 (UACC-257): 0.03 µM (active)

CCOC(=O)c1cnc2oc(-c3ccc(OC)cc3)nn2c1=O
GI50 (786-0): > 100 µM (inactive)
GI50 (A549): > 100 µM (inactive)
GI50 (COLO 205): > 100 µM (inactive)
GI50 (DMS-114): > 100 µM (inactive)
GI50 (DMS-273): > 100 µM (inactive)
GI50 (EKVX): > 100 µM (inactive)
GI50 (HCC 2998): > 100 µM (inactive)
GI50 (HCT-116): > 100 µM (inactive)
GI50 (HCT-15): > 100 µM
GI50 (HOP-92): 29.5 µM (inactive)
GI50 (HT-29): > 100 µM (inactive)
GI50 (IGROV-1): > 100 µM (inactive)
GI50 (K562): > 100 µM (inactive)
GI50 (KM-20L2): > 100 µM (inactive)
GI50 (KM12): > 100 µM (inactive)
GI50 (LXFL 529): > 100 µM (inactive)
GI50 (M19-MEL): > 100 µM (inactive)
GI50 (MOLT-4): > 100 µM (inactive)
GI50 (Malme-3M): > 100 µM (inactive)
GI50 (NCI-H226): > 100 µM (inactive)
GI50 (NCI-H23): > 100 µM (inactive)
GI50 (NCI-H522): 79.1 µM (inactive)
GI50 (OVCAR-3): > 100 µM (inactive)
GI50 (OVCAR-4): > 100 µM (inactive)
GI50 (OVCAR-5): > 100 µM (inactive)
GI50 (OVCAR-8): > 100 µM (inactive)
GI50 (RPMI-8226): > 100 µM (inactive)
GI50 (RXF 393): 93.1 µM (inactive)
GI50 (SF-268): > 100 µM (inactive)
GI50 (SF-295): > 100 µM (inactive)
GI50 (SF-539): > 100 µM (inactive)
GI50 (SK-MEL-28): > 100 µM (inactive)
GI50 (SK-MEL-2): > 100 µM (inactive)
GI50 (SK-MEL-5): > 100 µM (inactive)
GI50 (SK-OV-3): > 100 µM (inactive)
GI50 (SN12C): > 100 µM (inactive)
GI50 (SNB-19): > 100 µM (inactive)
GI50 (SNB-75): 45.3 µM (inactive)
GI50 (SNB-78): > 100 µM (inactive)
GI50 (SR): > 10 µM (inactive)
GI50 (SW-620): > 100 µM (inactive)
GI50 (TK-10): > 100 µM (inactive)
GI50 (U-251): > 100 µM (inactive)
GI50 (UACC-257): > 100 µM (inactive)
GI50 (UACC-62): 71.1 µM (inactive)
GI50 (UO-31): > 100 µM (inactive)
